Laboratory results from patent US20260137714A1, “METHODS AND COMPOSITIONS FOR TREATMENT OF OPHTHALMIC DISEASE” (Design Therapeutics, Inc., priority 2022, published 2026).

How the values were obtained:
[1] = Compound solubility in water using in situ salt formation with aqueous HCl; format: physicochemical; settings: for Result: appearance at the final concentration; for solubility: aqueous buffer, thermodynamic from solid, water with aqueous HCl, in situ salt formation, started at 10 mg/ml, minimum tested 1 mg/ml, read-out: Final Concentration; for pH: pH of the solution at the end of the experiment, before any aq. NaOH; for pH after aq. NaOH: pH of the solution after adjustment with aq. NaOH
Procedure: To determine solubility of candidate compounds, solubility of the compounds was determined at a concentration of 10 mg/ml using in situ salt formation with aqueous HCl. First, 0.5 ml of sterile water was added to 10 mg of dry compound, vortexed, and briefly centrifuged. Next, 0.5 equivalents of 0.025 M HCl were added to the mixture followed by a volume of water that totaled 1 ml. The mixture was stirred continuously for 0.5 to 24 h. […] If the solution was not clear, additional water and/or HCl was added, along with continuous stirring and vortexing until it was determined that the compound had completely dissolved or was refractory to dissolution. The minimum concentration tested was 1 mg/ml. pH values were assessed at the end of the experiment.

[2] = Ex vivo bovine eye penetration of compounds formulated in water; format: in vitro ADME; settings: for Cornea, R1 / Descemet Membrane/endothelial cells, R1: bovine eye, 30 min at room temperature, LC-MS, replicate R1
Procedure: Freshly enucleated bovine eyes (Nebraska Scientific) were treated with compound as described previously (Luschmann et al., “Developing an in situ nanosuspension: a novel approach towards the efficient administration of poorly soluble drugs at the anterior eye”, European Journal of Pharmaceutical Sciences (2013)). Individual eyes were rinsed with 10 mL of sterile 0.9% saline then placed in the bottom of a 600 mL glass beaker (Pyrex). A borosilicate glass powder funnel with a 26 mm diameter stem (Eisco Labs) was gently rested on top of the eye with the cornea centered in the cylindrical opening, creating a sealed dosing chamber in which solutions were applied. Eyes were equilibrated in sterile 0.9% saline at room temperature for 20 min then decanted. 500 μL of 0.1 to 0.3% GeneTAC compound was applied to the cornea followed by 167 μL of sterile water to mimic the instillation a 30 μL eye drop into 10 μL of tear fluid. Compound was incubated for 30 min at room temperature after which the funnel was removed. Next, eyes were washed twice with 10 ml of 5.2% aqueous mannitol solution to remove residual compound. Aqueous humor was recovered using a 28-gauge needle and snap frozen in liquid nitrogen. The cornea was then surgically excised, and the Descemet membrane and corneal endothelium (DM/CE) were removed with fine forceps under a dissecting microscope and snap frozen in liquid nitrogen. Compound abundance was quantified in aqueous humor, anterior cornea, and DM/CE using liquid chromatography-mass spectrometry.

[3] = test system: Immortalized Fuchs endothelial corneal dystrophy cells (F35T); test: In vitro foci assay (nuclear foci by FISH with (CAG)10-Cy3 oligonucleotide); format: cell-based; settings: 48 h treatment, 3000 to 1 nM
Procedure: Immortalized Fuchs endothelial corneal dystrophy cells (F35T) were seeded in black-sided clear-bottomed 96 well plates at 5000 cells per well 16 hours prior to compound treatment. Compounds were dissolved in DMSO to 1 mM and diluted to a final concentration of 3000 to 1 nM in F35T cell culture media. Diluted compounds were added to the F35T cells and incubated for 48 h.
Following treatment, cells were fixed in 4% paraformaldehyde for 20 min, washed twice with PBS, and permeabilized with 70% ethanol at −20 deg C. for 16 h. Following permeabilization, cells were washed twice with PBS then hydrated with 30% formamide plus 2×SSC buffer for 10 min. Nuclear foci were labeled using fluorescent in situ hybridization with a (CAG)10-Cy3 oligonucleotide. Images were collected and automated image analysis was performed on a BioTEK Cytation 5.

SMILES | Result [1] | solubility [1] [µg/mL] | pH [1] | Concentrations reached in corneal epithelium and stroma and in Descemet membrane and endothelium, relative to IC50 ([2]; FIG. 1, ex vivo bovine eye distribution) | Cornea, R1 [2] [nM] | Descemet Membrane/endothelial cells, R1 [2] | IC50 [3] [µM] | pH after aq. NaOH [1]
COCCOCCOCCOCCN(CCCNC(=O)c1nc(NC(=O)c2cc(NC(=O)CCNC(=O)c3nc(NC(=O)CCCNC(=O)c4cc(NC(=O)c5nc(NC(=O)CCNC(=O)c6cc(NC(=O)c7nccn7C)cn6C)cn5C)cn4C)cn3C)cn2C)cn1C)CCOCCOCCOCCOC [Compound 201] | Clear solution | ≥ 10000 | 6.04 | above the IC50 for preventing foci formation as well as above the IC50 for preventing abnormal splicing events | 798 | 46 nM | 0.167 | –
CN1CC2(CCN(C(=O)CCNC(=O)c3nc(NC(=O)c4cc(NC(=O)CCNC(=O)c5nc(NC(=O)CCCNC(=O)c6cc(NC(=O)c7nc(NC(=O)CCNC(=O)c8cc(NC(=O)c9nccn9C)cn8C)cn7C)cn6C)cn5C)cn4C)cn3C)CC2)C1 [Compound 202] | Clear solution | ≥ 4030 | 3.10 | – | – | – | 0.213 | 6.24
CN1CC(C2CCN(C(=O)CCNC(=O)c3nc(NC(=O)c4cc(NC(=O)CCNC(=O)c5nc(NC(=O)CCCNC(=O)c6cc(NC(=O)c7nc(NC(=O)CCNC(=O)c8cc(NC(=O)c9nccn9C)cn8C)cn7C)cn6C)cn5C)cn4C)cn3C)CC2)C1 [Compound 203] | Clear solution | ≥ 3180 | 8.04 | – | – | – | 0.384 | –
Cn1cc(NC(=O)c2nc(NC(=O)CCNC(=O)c3cc(NC(=O)c4nccn4C)cn3C)cn2C)cc1C(=O)NCCCC(=O)Nc1cn(C)c(C(=O)NCCC(=O)Nc2cc(C(=O)Nc3cn(C)c(C(=O)NCCC(=O)N4CCC(C5CNC5)CC4)n3)n(C)c2)n1 [Compound 204] | Clear solution | ≥ 3780 | 2.32 | – | – | – | 0.518 | 6.73
CN(C)CCOCCNC(=O)c1nc(NC(=O)c2cc(NC(=O)CCNC(=O)c3nc(NC(=O)CCCNC(=O)c4cc(NC(=O)c5nc(NC(=O)CCNC(=O)c6cc(NC(=O)c7nccn7C)cn6C)cn5C)cn4C)cn3C)cn2C)cn1C [Compound 205] | Clear solution | ≥ 1000 | 7.62 | – | – | – | 0.065 | –
Cn1cc(NC(=O)c2nc(NC(=O)CCNC(=O)c3cc(NC(=O)c4nccn4C)cn3C)cn2C)cc1C(=O)NCCCC(=O)Nc1cn(C)c(C(=O)NCCC(=O)Nc2cc(C(=O)Nc3cn(C)c(C(=O)NCCCN4CCOCC4)n3)n(C)c2)n1 [Compound 206] | Clear solution | ≥ 1000 | 4.96 | – | – | – | 0.172 | –
Cn1cc(NC(=O)c2nc(NC(=O)CCNC(=O)c3cc(NC(=O)c4nccn4C)cn3C)cn2C)cc1C(=O)NCCCC(=O)Nc1cn(C)c(C(=O)NCCC(=O)Nc2cc(C(=O)Nc3cn(C)c(C(=O)NCCC(=O)N4CCC(C#CC#CC5CCNCC5)CC4)n3)n(C)c2)n1 [Compound 207] | Clear solution | ≥ 10000 | – | – | – | – | 0.033 | –
Cn1cc(NC(=O)c2nc(NC(=O)CCNC(=O)c3cc(NC(=O)c4nccn4C)cn3C)cn2C)cc1C(=O)NCCCC(=O)Nc1cn(C)c(C(=O)NCCC(=O)Nc2cc(C(=O)Nc3cn(C)c(C(=O)NCCC(=O)N4CCC5(CC4)CNC5)n3)n(C)c2)n1 [Compound 208] | Clear solution | ≥ 3530 | 2.75 | – | – | – | 0.186 | 6.07
CN1CCN(C(=O)CCNC(=O)c2nc(NC(=O)c3cc(NC(=O)CCNC(=O)c4nc(NC(=O)[C@H](N)CCNC(=O)c5cc(NC(=O)c6nc(NC(=O)CCNC(=O)c7cc(NC(=O)c8nccn8C)cn7C)cn6C)cn5C)cn4C)cn3C)cn2C)CC1 [Compound 209] | Clear solution | ≥ 10000 | 2.21 | – | – | – | 1.65 | –
Cn1cc(NC(=O)c2nccn2C)cc1C(=O)NCCC(=O)Nc1cn(C)c(C(=O)Nc2cc(C(=O)NCC[C@@H](N)C(=O)Nc3cn(C)c(C(=O)NCCC(=O)Nc4cc(C(=O)Nc5cn(C)c(C(=O)NCCC(=O)N6CCC(C#CC#CC7CCNCC7)CC6)n5)n(C)c4)n3)n(C)c2)n1 [Compound 210] | Clear solution | ≥ 10000 | 2.14 | – | – | – | 0.715 | –
CN(C)CCCCNC(=O)c1nc(NC(=O)c2cc(NC(=O)CCNC(=O)c3nc(NC(=O)[C@H](N)CCNC(=O)c4cc(NC(=O)c5nc(NC(=O)CCNC(=O)c6cc(NC(=O)c7nccn7C)cn6C)cn5C)cn4C)cn3C)cn2C)cn1C [Compound 211] | Clear solution | ≥ 10000 | 2.14 | – | – | – | 1.65 | –
COCCOCCOCCOCCOCCOCCOc1ccc(C#CCNCCCNC(=O)c2nc(NC(=O)c3cc(NC(=O)CCNC(=O)c4nc(NC(=O)CCCNC(=O)c5cc(NC(=O)c6nc(NC(=O)CCNC(=O)c7cc(NC(=O)c8nccn8C)cn7C)cn6C)cn5C)cn4C)cn3C)cn2C)cc1 [Compound 212] | Clear solution | ≥ 10000 | 1.97 | – | – | – | 0.378 | –
Cn1cc(NC(=O)c2nc(NC(=O)CCNC(=O)c3cc(NC(=O)c4nccn4C)cn3C)cn2C)cc1C(=O)NCCCC(=O)Nc1cn(C)c(C(=O)NCCC(=O)Nc2cc(C(=O)Nc3cn(C)c(C(=O)NCCC(=O)N4CCC(N5CCNCC5)CC4)n3)n(C)c2)n1 [Compound 213] | Clear solution | ≥ 3210 | 6.64 | – | 50 | BQL | 0.892 | –
CCCCn1cc(NC(=O)c2nc(NC(=O)CCNC(=O)c3cc(NC(=O)c4nccn4C)cn3C)cn2C)cc1C(=O)NCC[C@@H](N)C(=O)Nc1cn(C)c(C(=O)NCCC(=O)Nc2cc(C(=O)Nc3cn(C)c(C(=O)NCCC(=O)N4CCN(C)CC4)n3)n(C)c2)n1 [Compound 214] | Clear solution | ≥ 10000 | 2.16 | – | – | – | 0.237 | –
